We go through five molecules from ChEMBL document CHEMBL1667832, “Potent and selective cyclohexyl-derived imidazopyrazine insulin-like growth factor 1 receptor inhibitors with in vivo efficacy” (Bioorg Med Chem Lett, 2011).

Series [1] is described as follows: Permeability of the compound at pH 7.4 by PAMPA. Type of series: ADME. The following applies: read-out: permeability. Background: PAMPA measures passive passage across an artificial lipid membrane.
A short description of series [2]: Oral bioavailability in mouse at 5 mg/kg. Type of series: ADME, organism-based. The following applies: in vivo.
Series [3] can be described thus: Cmax in mouse at 5 mg/kg, po. Details: dose 5 mg/kg, route oral. Type of series: ADME, organism-based. To be noted: in vivo.
A short description of series [4]: Clearance in mouse at 2 mg/kg, iv. Type of series: ADME, organism-based. Details: dose 2 mg/kg, route intravenous. The following applies: in vivo.
Series [5] can be described thus: Permeability of the compound at pH 5 by PAMPA. Type of series: ADME. To be noted: read-out: permeability.
Series [6] can be described thus: AUC in mouse at 5 mg/kg, po. Type of series: ADME, organism-based. Further details: dose 5 mg/kg, route oral. The following applies: plasma.
Series [7] in a line: Volume of distribution at steady state in mouse at 2 mg/kg, iv. Type of series: ADME, organism-based. Further details: dose 2 mg/kg, route intravenous. The following applies: in vivo, read-out: Vdss.
Series [8] can be described thus: Volume of distribution at steady state in mouse at 5 mg/kg, iv. Type of series: ADME, organism-based. Details: dose 5 mg/kg, route intravenous. The following applies: in vivo, read-out: Vdss.
The nature of series [9]: Oral bioavailability in mouse at 25 mg/kg. Type of series: ADME, organism-based. The following applies: in vivo.
Series [10] can be described thus: AUC in mouse at 25 mg/kg, po. Type of series: ADME, organism-based. Details: dose 25 mg/kg, route oral. The following applies: plasma.
A short description of series [11]: Cmax in mouse at 25 mg/kg, po. The following applies: in vivo. Details: dose 25 mg/kg, route oral. Type of series: ADME, organism-based.
Series [12] is described as follows: Clearance in mouse at 5 mg/kg, iv. Type of series: ADME, organism-based. Details: dose 5 mg/kg, route intravenous. To be noted: in vivo.
The nature of series [13]: Physiological stability of the compound in simulated intestinal fluid assessed as formation of 4-(8-amino-1-(8-fluoro-2-phenylquinolin-7-yl)imidazo[1,5-a]pyrazin-3-yl)cyclohexanecarboxylic acid. Type of series: physicochemical. To be noted: simulated gi fluid.
Series [14] is described as follows: Genotoxicity in Salmonella Typhimurium by Ames test in presence of S9 fractions. Type of series: toxicity, S9 Fraction. To be noted: salmonella enterica subsp. enterica serovar typhimurium. Background: The Ames test uses bacterial strains that need an amino acid and regain growth without it when mutated back.
Series [15] can be described thus: Antitumor activity against human GEO cells xenografted in nu/nu CD-1 mouse assessed as tumor growth inhibition at 60 mg/kg, po qd for 14 days. Type of series: functional. The following applies: 336 h, read-out: TGI. Background: In xenograft studies the graft and the host belong to different species.
The target of another series is Cytochrome P450 2C19 (Homo sapiens, UniProt P33261). As to the kind of experiment: Inhibition of CYP2C19. Type of series: ADME.
Cytochrome P450 2C19, sequence (P33261 whole entry): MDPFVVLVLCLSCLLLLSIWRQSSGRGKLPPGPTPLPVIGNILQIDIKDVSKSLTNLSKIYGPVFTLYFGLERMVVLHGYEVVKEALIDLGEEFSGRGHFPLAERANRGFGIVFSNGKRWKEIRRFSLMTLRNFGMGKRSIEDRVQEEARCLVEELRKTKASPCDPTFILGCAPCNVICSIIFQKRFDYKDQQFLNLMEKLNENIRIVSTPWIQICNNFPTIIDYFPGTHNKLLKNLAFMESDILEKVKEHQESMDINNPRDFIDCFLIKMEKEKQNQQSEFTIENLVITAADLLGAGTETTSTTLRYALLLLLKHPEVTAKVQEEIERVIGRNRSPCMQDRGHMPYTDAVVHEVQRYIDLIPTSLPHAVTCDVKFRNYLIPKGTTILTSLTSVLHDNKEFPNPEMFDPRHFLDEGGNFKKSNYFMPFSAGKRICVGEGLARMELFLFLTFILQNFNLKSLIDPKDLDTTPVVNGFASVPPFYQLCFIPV
Series [16] can be described thus: Physiological stability of the compound in simulated intestinal fluids assessed as formation of 4-(8-amino-1-(8-fluoro-2-phenylquinolin-7-yl)imidazo[1,5-a]pyrazin-3-yl)cyclohexanecarboxylic acid at 2 uM. The following applies: simulated gi fluid. Type of series: physicochemical.
In the next series the target is Cytochrome P450 3A4 (Homo sapiens, UniProt P08684). Nature of the series: Inhibition of CYP3A4. Type of series: ADME.
Cytochrome P450 3A4, sequence (P08684 whole entry): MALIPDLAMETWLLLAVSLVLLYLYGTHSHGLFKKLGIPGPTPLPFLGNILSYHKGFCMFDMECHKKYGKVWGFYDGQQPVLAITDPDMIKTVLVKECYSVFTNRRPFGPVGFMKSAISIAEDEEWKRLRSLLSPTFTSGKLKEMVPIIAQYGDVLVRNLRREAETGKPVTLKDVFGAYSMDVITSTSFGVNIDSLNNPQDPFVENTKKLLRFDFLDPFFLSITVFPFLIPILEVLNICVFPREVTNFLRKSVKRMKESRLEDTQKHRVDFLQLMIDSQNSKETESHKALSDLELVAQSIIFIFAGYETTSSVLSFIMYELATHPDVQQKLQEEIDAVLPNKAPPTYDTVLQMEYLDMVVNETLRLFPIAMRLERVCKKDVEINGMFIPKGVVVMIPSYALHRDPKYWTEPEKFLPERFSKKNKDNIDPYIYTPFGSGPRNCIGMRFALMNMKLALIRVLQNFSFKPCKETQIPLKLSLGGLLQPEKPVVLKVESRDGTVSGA
The target of a further series is Cytochrome P450 2C9 (Homo sapiens, UniProt P11712). Nature of the series: Inhibition of CYP2C9. Type of series: ADME.
Cytochrome P450 2C9, sequence (P11712 whole entry): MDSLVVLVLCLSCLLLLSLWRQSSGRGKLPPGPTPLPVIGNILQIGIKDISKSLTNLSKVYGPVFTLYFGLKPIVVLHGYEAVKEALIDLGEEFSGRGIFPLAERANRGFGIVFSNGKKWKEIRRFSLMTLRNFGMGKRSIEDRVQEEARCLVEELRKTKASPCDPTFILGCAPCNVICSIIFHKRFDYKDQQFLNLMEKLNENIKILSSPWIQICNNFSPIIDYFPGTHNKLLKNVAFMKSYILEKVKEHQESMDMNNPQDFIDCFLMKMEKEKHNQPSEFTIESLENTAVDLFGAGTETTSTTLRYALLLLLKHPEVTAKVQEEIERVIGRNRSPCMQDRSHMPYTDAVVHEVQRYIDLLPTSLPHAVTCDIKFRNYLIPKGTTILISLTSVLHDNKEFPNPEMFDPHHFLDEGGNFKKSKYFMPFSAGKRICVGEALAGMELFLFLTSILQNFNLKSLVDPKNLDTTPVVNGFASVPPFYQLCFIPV
In series [17] the test system is Mus musculus. Nature of the series: Toxicity in human GEO cells xenografted nu/nu CD-1 mouse assessed as mortality at 60 mg/kg, po qd for 14 days. Type of series: organism-based. Details: dose 60 mg/kg, route oral. The following applies: in vivo, 336 h.
Another series deals with T1, Cytochrome P450 1A2 (Homo sapiens, UniProt P05177).
T1 sequence (P05177 whole entry): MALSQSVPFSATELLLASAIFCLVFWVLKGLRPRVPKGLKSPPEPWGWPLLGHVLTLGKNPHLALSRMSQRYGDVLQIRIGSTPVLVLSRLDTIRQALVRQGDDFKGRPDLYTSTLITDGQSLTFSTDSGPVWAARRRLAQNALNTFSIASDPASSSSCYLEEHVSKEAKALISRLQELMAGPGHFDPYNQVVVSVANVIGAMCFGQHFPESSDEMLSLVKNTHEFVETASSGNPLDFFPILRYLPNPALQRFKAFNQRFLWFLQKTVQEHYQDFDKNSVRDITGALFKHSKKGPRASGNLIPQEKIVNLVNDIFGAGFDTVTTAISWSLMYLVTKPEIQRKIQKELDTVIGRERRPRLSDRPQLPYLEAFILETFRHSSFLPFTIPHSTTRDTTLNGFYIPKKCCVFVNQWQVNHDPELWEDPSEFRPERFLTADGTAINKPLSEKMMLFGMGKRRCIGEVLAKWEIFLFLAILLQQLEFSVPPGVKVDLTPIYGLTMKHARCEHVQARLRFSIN
Nature of the series: Inhibition of CYP1A2. Type of series: ADME.

Series [18] can be described thus: Physiological stability of the compound in simulated gastric fluids assessed as formation of 4-(8-amino-1-(8-fluoro-2-phenylquinolin-7-yl)imidazo[1,5-a]pyrazin-3-yl)cyclohexanecarboxylic acid at 2 uM. Type of series: physicochemical. The following applies: simulated gi fluid.
For a further series, the target named is Cytochrome P450 2D6 (Homo sapiens, UniProt P10635). Nature of the series: Inhibition of CYP2D6. Type of series: ADME.
Cytochrome P450 2D6, sequence (P10635 whole entry): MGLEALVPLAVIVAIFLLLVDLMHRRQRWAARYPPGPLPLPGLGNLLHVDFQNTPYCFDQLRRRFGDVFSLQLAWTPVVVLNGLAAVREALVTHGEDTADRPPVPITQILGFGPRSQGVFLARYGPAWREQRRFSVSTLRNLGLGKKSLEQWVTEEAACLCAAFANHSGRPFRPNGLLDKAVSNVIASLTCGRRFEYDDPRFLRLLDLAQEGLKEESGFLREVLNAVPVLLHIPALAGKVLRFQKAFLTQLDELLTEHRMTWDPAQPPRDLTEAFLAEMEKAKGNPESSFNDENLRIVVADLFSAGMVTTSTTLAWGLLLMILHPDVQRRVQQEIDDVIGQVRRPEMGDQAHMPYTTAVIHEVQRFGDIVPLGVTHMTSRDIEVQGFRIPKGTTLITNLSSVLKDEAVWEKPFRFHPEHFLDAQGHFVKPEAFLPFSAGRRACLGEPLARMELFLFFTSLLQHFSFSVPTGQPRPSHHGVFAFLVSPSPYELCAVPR
For series [19], the system named is Mus musculus. As to the kind of experiment: Toxicity in human GEO cells xenografted nu/nu CD-1 mouse assessed as effect on blood glucose level at 60 mg/kg, po qd for 14 days. Type of series: organism-based. Details: dose 60 mg/kg, route oral. The following applies: in vivo, 336 h.

As a reminder, the bioavailability is the share of a dose that reaches the circulation, judged against a reference dose that is usually intravenous. For orientation: Cmax means the maximum level reached in the sampled fluid or tissue. Broadly, the clearance is the rate of elimination divided by the concentration. A lower clearance goes with inefficient removal. In general, AUC refers to concentration integrated over time. Higher therefore signals high exposure. For `Nc1nccn2c1c(-c1ccc3ccc(-c4ccccc4)nc3c1F)nc2[C@H]1CC[C@H](CO)CC1`, the Papp in series [1] was greater than 1000 ×10⁻⁶ cm/s; in series [5] it was 880 ×10⁻⁶ cm/s. The bioavailability in [2] was 23%. The same molecule showed a Cmax in series [3] of 110 nM. Also, in series [4], the clearance was 197 mL/min/kg. Also, the area under the curve (AUC) in series [6] amounted to 100 ng·h/mL. In series [7], the Vd was determined as 7 L/kg.
Consider `Nc1nccn2c1c(-c1ccc3ccc(-c4ccccc4)nc3c1F)nc2[C@H]1CC[C@H](C(=O)O)CC1`, for which the Vd in series [8] was 2.8 L/kg. The Papp in series [1] and in [5] was greater than 1000 ×10⁻⁶ cm/s each time. Also, in series [9], the bioavailability came out at 51%. Further, the AUC in series [10] was found to be 7970 ng·h/mL. The molecule further displayed a Cmax in series [11] of 5500 nM. The molecule also displayed a clearance in series [12] of 26 mL/min/kg.
In the case of `Nc1nccn2c1c(-c1ccc3ccc(-c4ccccc4)nc3c1F)nc2[C@H]1CC[C@H](C(N)=O)CC1`, the Vd in series [8] turned out to be 2.6 L/kg. The Papp worked out at 63 ×10⁻⁶ cm/s in [1] and 45 ×10⁻⁶ cm/s in [5]. The molecule further gave a bioavailability in series [9] of 24%. This molecule also yielded an AUC in series [10] of 3570 ng·h/mL. Also, the Cmax in [11] was determined as 1900 nM. For the same molecule, the clearance in series [12] is 38 mL/min/kg.
Turning to `Nc1nccn2c1c(-c1ccc3ccc(-c4ccccc4)nc3c1F)nc2[C@H]1CC[C@H](C(=O)Nc2nncs2)CC1`, in series [8], the Vd worked out at 3.2 L/kg. For the same molecule, the Papp in series [1] was 86 ×10⁻⁶ cm/s; in [5], 73 ×10⁻⁶ cm/s. Also, the bioavailability in series [9] came out at 5%. This molecule showed an exposure (AUC) in series [10] of 297 ng·h/mL. Further, the concentration in [11] peaked (Cmax) at 130 nM. For the same molecule, in [12], the clearance turned out to be 73 mL/min/kg. For the same molecule, the Stability entry in [13] is “Unstable”.
The IC50 is the concentration that gives 50% inhibition. Lower therefore signals greater potency in that assay. On to `Nc1nccn2c1c(-c1ccc3ccc(-c4ccccc4)nc3c1F)nc2[C@H]1CC[C@H](C(=O)Nc2nc3ccccc3[nH]2)CC1`, for which, in series [8], the Vd was found to be 0.43 L/kg. Further, the Papp in series [1] was determined as 766 ×10⁻⁶ cm/s; in series [5], 538 ×10⁻⁶ cm/s. The Activity result (in series [14]; in the series with Mus musculus [17]; in the series on Mus musculus [19]) was “Non-toxic” each time. The molecule further displayed a bioavailability in series [9] of 50%. The inhibition in vivo at 60 mg/kg in series [15] stood at 98%. The molecule also showed an exposure (AUC) in series [10] of 158000 ng·h/mL. The 50% inhibitory concentration (IC50) was greater than 20 µM at Cytochrome P450 2C19; greater than 20 µM against Cytochrome P450 3A4; 9.8 µM against Cytochrome P450 2C9; greater than 20 µM at Cytochrome P450 1A2; greater than 20 µM at Cytochrome P450 2D6. Moreover, the Stability entry in series [16] and in series [18] was “Stable” throughout. Further, the maximum concentration (Cmax) in series [11] was found to be 28000 nM. The clearance in series [12] was 1 mL/min/kg.
